{"source": "patent US7175872B2", "about": "“Pyridinium-Betain compounds for use as taste modulators” (Nestec S.A., priority 2002, dated 2007)", "key": {"[1]": {"test_system": "bitter taste of coffee brew", "test": "Bitterness reduction of coffee with Glypyridaine", "type": "in vivo", "conditions": "coffee brew 40 g/L plus 2.0 mmol/L Glypyridaine; coffee alone 5; scale 0 (no bitterness) to 5 (very bitter)"}, "[2]": {"test_system": "bitter taste of naringine", "test": "Bitter intensity ranking with Glypyridaine: naringine", "type": "in vivo", "conditions": "scale 0-5", "from_the_text": "(§1) Instead of working with low concentrated solutions at the bitter threshold, another series of experiments use carried out using more concentrated solutions of various bitter compounds to evaluate the bitter-blocking properties of Pyridinium-Betaines based on non-chiral amino acids. […] The bitter-reducing effect was most pronounced with L-Phenylalanine, the dipeptide H-Gly-Leu-OH, and caffeine."}, "[3]": {"test_system": "bitter taste of H-Gly-Leu-OH", "test": "Bitter intensity ranking with Glypyridaine: H-Gly-Leu-OH", "type": "in vivo", "conditions": "scale 0-5", "from_the_text": "as §1, with “caffeine. For example the 10:1 mixture of L-Phenylalanine and […] was weaker in bitterness (score 3) as compared to pure L-Phenylalanine (score 5).” for “caffeine.”"}, "[4]": {"test_system": "bitter taste of caffeine", "test": "Bitter intensity ranking with Glypyridaine: caffeine", "type": "in vivo", "conditions": "scale 0-5", "from_the_text": "as §1"}, "[5]": {"test_system": "bitter taste of L-phenylalanine", "test": "Bitter intensity ranking with Glypyridaine: L-Phenylalanine", "type": "in vivo", "from_the_text": "as §1"}, "[6]": {"test_system": "salty taste of NaCl", "test": "Salt taste detection threshold of NaCl/Pyridinium-Betaine mixtures (triangle test, sensory panel)", "type": "in vivo", "procedure": "(§2) • Sensory panel training: […] Sensory analyses were performed in a sensory panel room at 22-25° C. on three different sessions. • Taste thresholds: The taste thresholds of the tastants or mixtures containing basic tastants plus Pyridinium-Betains were determined in a triangle test using Evian® mineral water as the solvent at a defined pH ([…] and H.-D. Belitz, Z. Lebensm. Unters. Forsch. 1975, 159, 65-72). The samples (3 mL) were presented in order of increasing concentrations (serial 1:1 dilutions). The threshold values evaluated in two different sessions were averaged. […] The taste intensities of aqueous (Evian®) solutions containing a basic tastant, such as glucose and MSG, for example, in constant concentrations and the compounds of the general formula (A), for example […], in various concentrations were compared with those of a solution containing the basic tastant only. […] The relative taste strength (taste enhancing factor) of a mixture containing the basic […] was related to the basic tastants glucose, MSG, or other tastants, respectively, as standard substances, and was determined as the ratio of the concentrations c of iso-intensely tasting solutions of the basic tastant, such as glucose (glc), and the mixture containing tastant plus Pyridinium-Betain, […])=[…] […] This taste enhancing effect is illustrated in examples."}, "[7]": {"test_system": "bitter taste of L-phenylalanine", "test": "Bitter-blocking effect on L-phenylalanine (detection threshold, 1/1 mixtures)", "type": "in vivo", "conditions": "for own taste: Pyridinium-Betaine alone; for Taste quality: conc. 32 mmol/L, mixtures 1/1 with L-Phe", "procedure": "as §2, with “only. To achieve this, triangle tests were performed with two glass vials containing the basic tastant in constant concentrations, and one glass vial containing a stepwise 1:1-diluted mixture of basic […].” for “only.”, “examples. The tasteless Pyridinium-Betaines […] and Gabapyridaine, built from non-[…] amino acids, were tested for their bitter-blocking activity on L-phenylalanine.” for “examples.”"}, "[8]": {"test_system": "bitter taste of salicine", "test": "Bitter intensity ranking with Glypyridaine: salicine", "type": "in vivo", "conditions": "scale 0-5", "from_the_text": "as §1"}, "[9]": {"test_system": "salty taste of NaCl", "test": "Salt-intensity ranking of NaCl/Pyridinium-Betaine mixtures by sensory panel", "type": "in vivo", "conditions": "20 mmol/L each, pH 7.0; for Salt-intensity: scale 0 (not salty) to 5 (very salty), reference NaCl-solution ranked as 1", "from_the_text": "The salt-intensities of various NaCl/Pyridinium-Betaine mixtures (20 mmol/L each) were compared to a 20 mmol/L NaCl standard solution. The sensory panel was asked to rank the salt-intensities of these solutions on a scale from 0 (not salty) to 5 (very salty), while the reference NaCl-solution was ranked as 1. As listed in Table 6, the most intense salty taste was found in the solution containing NaCl and Alapyridaine, as well as in the triple mixture with L-arginine. A slight impact was found for Argpyridaine and L-arginine."}, "[10]": {"test_system": "bitter taste", "conditions": "in vivo; cited from earlier work"}}, "note": "Counter-ions that a name gives are not always drawn."}
{"compound": "O=C([O-])C[n+]1cc(O)ccc1CO", "note": "[Glypyridaine, N-carboxymethyl-3-hydroxy-6-hydroxymethyl-pyridinium inner salt]", "values": [{"measurement": "bitter taste intensity of coffee", "setting": "[1]", "result": 2}, {"measurement": "Bitter taste intensity", "setting": "[2]; Naringine 0.06 mmol/L water, ratio to Glypyridaine 1:1", "result": 1}, {"measurement": "Bitter taste intensity", "setting": "[2]; Naringine 0.13 mmol/L water, ratio to Glypyridaine 1:1", "result": 2}, {"measurement": "Bitter taste intensity", "setting": "[2]; Naringine 0.25 mmol/L water, ratio to Glypyridaine 1:1", "result": 3}, {"measurement": "Bitter taste intensity", "setting": "[3]; H-Gly-Leu-OH 30 mmol/L water, ratio to Glypyridaine 2:1", "result": 0.5}, {"measurement": "Bitter taste intensity", "setting": "[3]; H-Gly-Leu-OH 30 mmol/L water, ratio to Glypyridaine 10:1", "result": 2}, {"measurement": "Bitter taste intensity", "setting": "[3]; H-Gly-Leu-OH 60 mmol/L water, ratio to Glypyridaine 2:1", "result": 1}, {"measurement": "Bitter taste intensity", "setting": "[3]; H-Gly-Leu-OH 60 mmol/L water, ratio to Glypyridaine 10:1", "result": 3}, {"measurement": "Bitter taste intensity", "setting": "[3]; H-Gly-Leu-OH 120 mmol/L water, ratio to Glypyridaine 10:1", "result": 4}, {"measurement": "Bitter taste intensity", "setting": "[4]; Caffeine 4 mmol/L water, ratio to Glypyridaine 1:1", "result": 0.5}, {"measurement": "Bitter taste intensity", "setting": "[4]; Caffeine 4 mmol/L water, ratio to Glypyridaine 5:1", "result": 1.5}, {"measurement": "Bitter taste intensity", "setting": "[4]; Caffeine 8 mmol/L water, ratio to Glypyridaine 1:1", "result": 1.5}, {"measurement": "Bitter taste intensity", "setting": "[4]; Caffeine 8 mmol/L water, ratio to Glypyridaine 5:1", "result": 2}, {"measurement": "Bitter taste intensity", "setting": "[4]; Caffeine 16 mmol/L water, ratio to Glypyridaine 1:1", "result": 2}, {"measurement": "Bitter taste intensity", "setting": "[4]; Caffeine 16 mmol/L water, ratio to Glypyridaine 5:1", "result": 3}, {"measurement": "Bitter taste intensity", "setting": "[5]; L-Phenylalanine 20 mmol/L water, ratio to Glypyridaine 1:1, scale 0-5", "result": 0}, {"measurement": "Bitter taste intensity", "setting": "[5]; L-Phenylalanine 20 mmol/L water, ratio to Glypyridaine 10:1, scale 0-5", "result": 0.5}, {"measurement": "Bitter taste intensity", "setting": "[5]; L-Phenylalanine 40 mmol/L water, ratio to Glypyridaine 1:1, scale 0-5", "result": 0}, {"measurement": "Bitter taste intensity", "setting": "[5]; L-Phenylalanine 40 mmol/L water, ratio to Glypyridaine 10:1, scale 0-5", "result": 2}, {"measurement": "Bitter taste intensity", "setting": "[5]; L-Phenylalanine 80 mmol/L water, ratio to Glypyridaine 1:1, scale 0-5", "result": 0.5}, {"measurement": "Bitter taste intensity", "setting": "[5]; L-Phenylalanine 80 mmol/L water, ratio to Glypyridaine 10:1, scale 0-5", "result": 3}, {"measurement": "Salt detection threshold", "setting": "[6]; mixture with NaCl, pH 7.0", "result": 2.0, "unit": "mmol/kg water"}, {"measurement": "Taste quality", "setting": "[6]; mixture with NaCl, pH 7.0", "result": "salty"}, {"measurement": "Threshold decrease", "setting": "[6]; mixture with NaCl, pH 7.0, vs NaCl in water 10.0 mmol/L", "result": 5.0}, {"measurement": "own taste", "setting": "[7]", "result": "tasteless"}, {"measurement": "Taste quality", "setting": "[7]; pH 7.0", "result": "complete loss of the bitter taste"}, {"measurement": "Bitter taste intensity", "setting": "[8]; Salicine 0.8 mmol/L water, ratio to Glypyridaine 1:1", "result": 1}, {"measurement": "Bitter taste intensity", "setting": "[8]; Salicine 1.6 mmol/L water, ratio to Glypyridaine 1:1", "result": 2}, {"measurement": "Bitter taste intensity", "setting": "[8]; Salicine 3.2 mmol/L water, ratio to Glypyridaine 1:1", "result": 3}]}
{"compound": "[Cl-].[Na+]", "note": "[NaCl, sodium chloride, reference compound]", "values": [{"measurement": "Taste quality", "setting": "[9]", "result": "salty"}, {"measurement": "Salt-intensity", "setting": "[9]", "result": 1.0}, {"measurement": "threshold of salt (NaCl) in water", "setting": "[6]; NaCl alone", "result": "^aThe threshold of salt (NaCl) in water is 10.0 mmol/L."}, {"measurement": "Taste quality", "setting": "[6]; salt and mixtures with Alapyridaine enantiomers (Table 11), pH not stated", "result": "salty"}, {"measurement": "Detection threshold", "setting": "[6]; salty, salt and mixtures with Alapyridaine enantiomers (Table 11), pH not stated", "result": 10.0, "unit": "mmol/kg water"}]}
{"compound": "H-Gly-Leu-OH [reference compound]", "values": [{"measurement": "Bitter taste intensity", "setting": "[3]; H-Gly-Leu-OH 30 mmol/L water, no Glypyridaine", "result": 2.5}, {"measurement": "Bitter taste intensity", "setting": "[3]; H-Gly-Leu-OH 60 mmol/L water, no Glypyridaine", "result": 3.5}, {"measurement": "Bitter taste intensity", "setting": "[3]; H-Gly-Leu-OH 120 mmol/L water, no Glypyridaine", "result": 5}]}
{"compound": "C[C@@H]1O[C@@H](O[C@H]2[C@H](Oc3cc(O)c4c(c3)O[C@H](c3ccc(O)cc3)CC4=O)O[C@H](CO)[C@@H](O)[C@@H]2O)[C@H](O)[C@H](O)[C@H]1O", "note": "[Naringine, reference compound]", "values": [{"measurement": "Bitter taste intensity", "setting": "[2]; Naringine 0.06 mmol/L water, no Glypyridaine", "result": 2.5}, {"measurement": "Bitter taste intensity", "setting": "[2]; Naringine 0.13 mmol/L water, no Glypyridaine", "result": 4}, {"measurement": "Bitter taste intensity", "setting": "[2]; Naringine 0.25 mmol/L water, no Glypyridaine", "result": 5}]}
{"compound": "O=C([O-])CCC[n+]1cc(O)ccc1CO", "note": "[Gabapyridaine]", "values": [{"measurement": "own taste", "setting": "[7]", "result": "tasteless"}, {"measurement": "Taste quality", "setting": "[7]; pH 7.0", "result": "complete loss of the bitter taste"}]}
{"compound": "O=C1C=C(c2ccco2)C(CO)[n+]2cc([O-])c(Cc3ccco3)cc21", "note": "(stereo not drawn) [3-(2-furyl)-8-[(2-furyl)methyl]-4-hydroxymethyl-1-oxo-1H,4H-quinolizinium-7-olate]", "values": [{"measurement": "bitter taste detection threshold", "setting": "[10]", "result": 0.00025, "unit": "mmol/kg water"}]}
{"compound": "N[C@@H](Cc1ccccc1)C(=O)O", "note": "[L-Phenylalanine, reference compound]", "values": [{"measurement": "Bitter taste intensity", "setting": "[5]; L-Phenylalanine 20 mmol/L water, no Glypyridaine, scale 0 no bitterness to 5 strongly bitter", "result": 2}, {"measurement": "Bitter taste intensity", "setting": "[5]; L-Phenylalanine 40 mmol/L water, no Glypyridaine, scale 0-5", "result": 4}, {"measurement": "Bitter taste intensity", "setting": "[5]; L-Phenylalanine 80 mmol/L water, no Glypyridaine, scale 0-5", "result": 5}, {"measurement": "Taste quality", "setting": "[7]; pH 7.0", "result": "bitter"}, {"measurement": "Detection threshold", "setting": "[7]; pH 7.0", "result": 16.0, "unit": "mmol/L water"}]}
{"compound": "N=C(N)NCCC[C@H](N)C(=O)O", "note": "[L-Arginine (L-Arg), L-Arginine]", "values": [{"measurement": "Salt-intensity", "setting": "[9]", "result": 0.0}]}
{"compound": "O=C([O-])CC[n+]1cc(O)ccc1CO", "note": "[β-Alapyridaine]", "values": [{"measurement": "own taste", "setting": "[7]", "result": "tasteless"}, {"measurement": "Taste quality", "setting": "[7]; pH 7.0", "result": "complete loss of the bitter taste"}]}
{"compound": "OCc1ccccc1O[C@@H]1O[C@H](CO)[C@@H](O)[C@H](O)[C@H]1O", "note": "[Salicine, reference compound]", "values": [{"measurement": "Bitter taste intensity", "setting": "[8]; Salicine 0.8 mmol/L water, no Glypyridaine", "result": 3}, {"measurement": "Bitter taste intensity", "setting": "[8]; Salicine 1.6 mmol/L water, no Glypyridaine", "result": 4.5}, {"measurement": "Bitter taste intensity", "setting": "[8]; Salicine 3.2 mmol/L water, no Glypyridaine", "result": 5}]}
